Among the data in patent publication US7989471B2, “Macrocyclic inhibitors of hepatitis C virus” (Tibotec Pharmaceuticals Ltd., priority 2005, dated 2011) are EC50 values, retold here.

One assay deals with HCV replicons (NS3-NS5B regions of HCV type Ib) in Huh-7 luc/neo cells. The experiment in a line: HCV replicon assay (Huh-Luc luciferase reporter). The following applies: Hepatitis C virus, Huh-7, 72 h. Type of assay: cell-based. The protocol:
The in vitro antiviral activity against HCV of the compounds of formula (I) was tested in a cellular HCV replicon system based on Lohmann et al. (1999) Science 285:110-113, with the further modifications described by Krieger et al. (2001) Journal of Virology 75: 4614-4624, which is further exemplified in the examples section. This model, while not a complete infection model for HCV, is widely accepted as the most robust and efficient model of autonomous HCV RNA replication currently available. […] It will be appreciated that it is important to distinguish between compounds that specifically interfere with HCV functions from those that exert cytotoxic or cytostatic effects in the HCV replicon model, and as a consequence cause a decrease in HCV RNA or linked reporter enzyme concentration. Assays are known in the field for the evaluation of cellular cytotoxicity based for example on the activity of mitochondrial enzymes using fluorogenic redox dyes such as resazurin. Furthermore, cellular counter screens exist for the evaluation of non-selective inhibition of linked reporter gene activity, such as firefly luciferase. Appropriate cell types can be equipped by stable transfection with a luciferase reporter gene whose expression is dependent on a constitutively active gene promoter, and such cells can be used as a counter-screen to eliminate non-selective inhibitors.
The compounds of formula (I) were examined for activity in the inhibition of HCV RNA replication in a cellular assay. […] The cellular assay was based on a bicistronic expression construct, as described by Lohmann et al. (1999) Science vol. 285 pp. 110-113 with modifications described by Krieger et al. (2001) Journal of Virology 75: 4614-4624, in a multi-target screening strategy. In essence, the method was as follows.
The assay utilized the stably transfected cell line Huh-7 luc/neo (hereafter referred to as Huh-Luc). This cell line harbors an RNA encoding a bicistronic expression construct comprising the wild type NS3-NS5B regions of HCV type Ib translated from an Internal Ribosome Entry Site (IRES) from encephalomyocarditis virus (EMCV), preceded by a reporter portion (FfL-luciferase), and a selectable marker portion (neo^R, neomycine phosphotransferase). The construct is bordered by 5′ and 3′ NTRs (non-translated regions) from HCV type Ib. Continued culture of the replicon cells in the presence of G418 (neo^R) is dependent on the replication of the HCV RNA. The stably transfected replicon cells that express HCV RNA, which replicates autonomously and to high levels, encoding inter alia luciferase, are used for screening the antiviral compounds.
The replicon cells were plated in 384 well plates in the presence of the test and control compounds which were added in various concentrations. Following an incubation of three days, HCV replication was measured by assaying luciferase activity (using standard luciferase assay substrates and reagents and a Perkin Elmer ViewLux™ ultraHTS microplate imager). Replicon cells in the control cultures have high luciferase expression in the absence of any inhibitor. The inhibitory activity of the compound on luciferase activity was monitored on the Huh-Luc cells, enabling a dose-response curve for each test compound.
On the technique in general: Replicon systems follow genome replication, usually without infectious particles.
By EC50 is commonly meant the concentration at which the effect is half-maximal. Take `COc1ccc2c(O[C@@H]3C[C@H]4C(=O)N[C@]5(C(=O)O)C[C@H]5/C=C\CCCCCC(C)(C)C(=O)N4C3)cc(-c3nc(C(C)C)cs3)nc2c1Cl` [Compound 54, 18-[8-chloro-2-(4-isopropylthiazol-2-yl)-7-methoxyquinolin-4-yloxy]-14,14-dimethyl-2,15-dioxo-3,16-diazatricyclo[14.3.0.0^4,6]nonadec-7-ene-4-carboxylic acid]: the EC50 was not below 10000 nM.

The assay is the same for the next values; noted with them: Hepatitis C virus, Huh-7, 72 h; Huh-Luc replicon cells, three days incubation, luciferase activity; read-out: EC50.
Turning to `COc1ccc2c(O[C@@H]3C[C@H]4C(=O)N[C@]5(C(=O)O)C[C@H]5/C=C\CCCCCCC(=O)N4C3)nc(-n3cccn3)cc2c1` [Compound 33, 18-[6-methoxy-3-(pyrazol-1-yl)isoquinolin-1-yloxy]-2,15-dioxo-3,16-diazatricyclo[14.3.0.0^4,6]nonadec-7-ene-4-carboxylic acid], the EC50 came to 6100 nM.

As to `COc1ccc2c(O[C@@H]3C[C@H]4C(=O)N[C@]5(C(=O)NS(=O)(=O)C6CC6)C[C@H]5/C=C\CCCCCCC(=O)N4C3)nc(-n3cccn3)cc2c1` [Compound 34, N-[18-[6-methoxy-3-(pyrazol-1-yl)isoquinolin-1-yloxy]-2,15-dioxo-3,16-diazatricyclo[14.3.0.0^4,6]nonadec-7-ene-4-carbonyl](cyclopropyl)-sulfonamide], the EC50 was 40 nM.

With `COc1ccc2c(O[C@@H]3C[C@H]4C(=O)N[C@]5(C(=O)O)C[C@H]5/C=C\CCCCCCC(=O)N4C3)cc(-c3cscn3)nc2c1` [Compound 35, 18-[7-methoxy-2-(thiazol-4-yl)quinolin-4-yloxy]-2,15-dioxo-3,16-diazatricyclo[14.3.0.0^4,6]nonadec-7-ene-4-carboxylic acid], the EC50 is 1630 nM.

Take `COc1ccc2c(O[C@@H]3C[C@H]4C(=O)N[C@]5(C(=O)NS(=O)(=O)C6CC6)C[C@H]5/C=C\CCCCCCC(=O)N4C3)cc(-c3cscn3)nc2c1` [Compound 36, N-[18-[7-methoxy-2-(thiazol-4-yl)quinolin-4-yloxy]-2,15-dioxo-3,16-diazatricyclo[14.3.0.0^4,6]nonadec-7-ene-4-carbonyl](cyclopropyl)-sulfonamide]: the EC50 amounted to 4 nM.

With `COc1ccc2c(O[C@@H]3C[C@H]4C(=O)N[C@]5(C(=O)O)C[C@H]5/C=C\CCCCCCC(=O)N4C3)cc(-c3nccs3)nc2c1Br` [Compound 41, 18-[8-bromo-7-methoxy-2-(thiazol-2-yl)quinolin-4-yloxy]-2,15-dioxo-3,16-diazatricyclo[14.3.0.0^4,6]nonadec-7-ene-4-carboxylic acid], the EC50 is 280 nM.

On to `COc1ccc2c(O[C@@H]3C[C@H]4C(=O)N[C@]5(C(=O)NS(=O)(=O)C6CC6)C[C@H]5/C=C\CCCCCCC(=O)N4C3)cc(-c3nccs3)nc2c1Br` [Compound 42, N-[18-[8-bromo-2-(thiazol-2-yl)-7-methoxyquinolin-4-yloxy]-2,15-dioxo-3,16-diazatricyclo[14.3.0.0^4,6]nonadec-7-ene-4-carbonyl]-(cyclopropyl)sulfonamide], for which the EC50 was 2 nM.

On to `COc1ccc2c(O[C@@H]3C[C@H]4C(=O)N[C@]5(C(=O)NS(=O)(=O)C6CC6)C[C@H]5/C=C\CCCCCC(C)(C)C(=O)N4C3)cc(-c3nc(C(C)C)cs3)nc2c1Cl` [Compound 55, N-[18-[8-chloro-2-(4-isopropylthiazol-2-yl)-7-methoxyquinolin-4-yloxy]-14,14-dimethyl-2,15-dioxo-3,16-diazatricyclo[14.3.0.0^4,6]nonadec-7-ene-4-carbonyl](cyclopropyl)sulfonamide], for which the EC50 was 198 nM.

On to `COc1ccc2c(O[C@@H]3C[C@H]4C(=O)N[C@]5(C(=O)O)C[C@H]5/C=C\CCCCCC(=O)N4C3)cc(-c3nc(C(C)C)cs3)nc2c1Cl` [Compound 56, 17-[8-chloro-2-(4-isopropylthiazol-2-yl)-7-methoxyquinolin-4-yloxy]-2,14-dioxo-3,15-diazatricyclo[13.3.0.0^4,6]octadec-7-ene-4-carboxylic acid], for which the EC50 was 318 nM.

On to `COc1ccc2c(O[C@@H]3C[C@H]4C(=O)N[C@]5(C(=O)NS(=O)(=O)C6CC6)C[C@H]5/C=C\CCCCCC(=O)N4C3)cc(-c3nc(C(C)C)cs3)nc2c1Cl` [Compound 57, N-[17-[8-chloro-2-(4-isopropylthiazol-2-yl)-7-methoxyquinolin-4-yloxy]-2,14-dioxo-3,15-diazatricyclo[13.3.0.0^4,6]octadec-7-ene-4-carbonyl]-(cyclopropyl)sulfonamide], for which the EC50 turned out to be 12 nM.

As to `COc1ccc2c(O[C@@H]3C[C@H]4C(=O)N[C@]5(C(=O)O)C[C@H]5/C=C\CCCCCC(=O)N4C3)cc(-c3nc(C(C)C)cs3)nc2c1C` [Compound 58, 17-[2-(4-isopropylthiazol-2-yl)-7-methoxy-8-methylquinolin-4-yloxy]-2,14-dioxo-3,15-diazatricyclo[13.3.0.0^4,6]octadec-7-ene-4-carboxylic acid], the EC50 came to 1600 nM.

Turning to `COc1ccc2c(O[C@@H]3C[C@H]4C(=O)N[C@]5(C(=O)NS(=O)(=O)C6CC6)C[C@H]5/C=C\CCCCCC(=O)N4C3)cc(-c3nc(C(C)C)cs3)nc2c1C` [Compound 59, N-[17-[2-(4-isopropylthiazol-2-yl)-7-methoxy-8-methylquinolin-4-yloxy]-2,14-dioxo-3,15-diazatricyclo[13.3.0.0^4,6]octadec-7-ene-4-carbonyl]-(cyclopropyl)sulfonamide], the EC50 was 3 nM.

Turning to `COc1ccc2c(O[C@@H]3C[C@H]4C(=O)N[C@]5(C(=O)NS(=O)(=O)C6(C)CC6)C[C@H]5/C=C\CCCCCC(=O)N4C3)cc(-c3nc(C(C)C)cs3)nc2c1C` [Compound 60, N-[17-[2-(4-isopropylthiazol-2-yl)-7-methoxy-8-methylquinolin-4-yloxy]-2,14-dioxo-3,15-diazatricyclo[13.3.0.0^4,6]octadec-7-ene-4-carbonyl]-(1-methylcyclopropyl)sulfonamide], the EC50 was found to be 14 nM.

In the case of `COc1ccc2c(O[C@@H]3C[C@H]4C(=O)N[C@]5(C(=O)NS(=O)(=O)C6(C)CC6)C[C@H]5/C=C\CCCCCC(=O)N4C3)cc(-c3nc(C(C)C)cs3)nc2c1Cl` [Compound 61, N-[17-[8-chloro-2-(4-isopropylthiazol-2-yl)-7-methoxyquinolin-4-yloxy]-2,14-dioxo-3,15-diazatricyclo[13.3.0.0^4,6]octadec-7-ene-4-carbonyl]-(1-methylcyclopropyl)sulfonamide], the EC50 was 1 nM.

Regarding `COc1ccc2c(O[C@@H]3C[C@H]4C(=O)N[C@]5(C(=O)NS(=O)(=O)C6CC6)C[C@H]5/C=C\CCCCCC(=O)N4C3)cc(-c3nc(C(C)C)cs3)nc2c1` [Compound 63, N-[17-[2-(4-isopropylthiazol-2-yl)-7-methoxyquinolin-4-yloxy]-2,14-dioxo-3,15-diazatricyclo[13.3.0.0^4,6]octadec-7-ene-4-carbonyl]-(cyclopropyl)sulfonamide], the EC50 was 24 nM.
